Earlier results, collected in publication PMC12299598 (Pharmaceuticals, 2025).
Read-outs that look alike come from different tables or passages of the source.

What was measured:
CYP3A4 = test system: CYP3A4; parameters: method as in PMID 1764870
BTK = details: lower than ibrutinib
[1] = test system: patients treated with ibrutinib; parameters: method as in PMID 29419429
[2] = test system: patients exposed to ibrutinib
[3] = parameters: method as in PMID 38955074

COc1ccc2[nH]c([S+]([O-])Cc3ncc(C)c(OC)c3C)nc2c1 (stereo not shown) [omeprazole]
CYP3A4 inhibitor strength (CYP3A4): weak

Nc1ncnc2c1c(-c1ccc(Oc3ccccc3)cc1)nn2C1CCCN(C(=O)C(O)CO)C1 (stereo not shown) [dihydrodiol metabolite]
BTK inhibitory activity relative to ibrutinib (BTK): 15 fold

C=CC(=O)N1CCC[C@@H](n2nc(-c3ccc(Oc4ccccc4)cc3)c3c(N)ncnc32)C1 [ibrutinib]
Toxicity leading to discontinuation: arthralgia ([1]; front-line ibrutinib): 41.6%
Toxicity leading to discontinuation: atrial fibrillation ([1]; front-line ibrutinib): 25%
Toxicity leading to discontinuation: rash ([1]; front-line ibrutinib): 16.7%
Toxicity leading to discontinuation: atrial fibrillation ([1]; relapsed/refractory population): 12.3%
Toxicity leading to discontinuation: bleeding ([1]; relapsed/refractory population): 9%
Toxicity leading to discontinuation: diarrhea ([1]; relapsed/refractory population): 6.6%
Toxicity leading to discontinuation: infection ([1]; relapsed/refractory population): 10.7%
Toxicity leading to discontinuation: pneumonitis ([1]; relapsed/refractory population): 9.9%
Cardiovascular deaths linked to ibrutinib [2]: 303
Mortality rate of cardiovascular ADRs ([2]; CNS events and heart failure): 20%
Mortality rate of cardiovascular ADRs ([2]; supraventricular and ventricular arrhythmias): 8%
Mortality rate ([2]; supraventricular arrhythmias with concurrent CNS events): 28.8%
Absolute oral bioavailability (fasting conditions): 3.9%
Time to peak concentration (oral administration): 1 to 2 h
Absolute oral bioavailability (with standard breakfast): 8.4%
Permeability [3]: high
Solubility [3]: low
